Data as given in ChEMBL document CHEMBL1156005, “Non-nucleoside inhibitors of HCV polymerase NS5B. Part 3: synthesis and optimization studies of benzothiazine-substituted tetramic acids” (Bioorg Med Chem Lett, 2009).

Tests used:
[1] = target: Genome polyprotein (Hepatitis C virus genotype 1b (isolate Con1) (HCV), UniProt Q9WMX2); assay: Inhibition of […] 1b con1 NS5B polymerase assessed as [3H]UTP incorporation into acid insoluble RNA product
[2] = Cytotoxicity against human 2209-23 cells assessed as […] by WST-1 assay; format: cell-based
[3] = test system: Hepatitis C virus; assay: Antiviral activity against HCV 1b infected in human 2209-23 cells assessed as inhibition of virus RNA replication by renilla luciferase reporter gene assay; format: functional, organism-based, Hepacivirus hominis; conditions: genotype 1b
[4] = target: Cytochrome P450 3A4 (Homo sapiens, UniProt P08684); assay: Inhibition of CYP3A4 by time dependent inactivation assay; format: ADME
Cytochrome P450 3A4, sequence (P08684 whole entry): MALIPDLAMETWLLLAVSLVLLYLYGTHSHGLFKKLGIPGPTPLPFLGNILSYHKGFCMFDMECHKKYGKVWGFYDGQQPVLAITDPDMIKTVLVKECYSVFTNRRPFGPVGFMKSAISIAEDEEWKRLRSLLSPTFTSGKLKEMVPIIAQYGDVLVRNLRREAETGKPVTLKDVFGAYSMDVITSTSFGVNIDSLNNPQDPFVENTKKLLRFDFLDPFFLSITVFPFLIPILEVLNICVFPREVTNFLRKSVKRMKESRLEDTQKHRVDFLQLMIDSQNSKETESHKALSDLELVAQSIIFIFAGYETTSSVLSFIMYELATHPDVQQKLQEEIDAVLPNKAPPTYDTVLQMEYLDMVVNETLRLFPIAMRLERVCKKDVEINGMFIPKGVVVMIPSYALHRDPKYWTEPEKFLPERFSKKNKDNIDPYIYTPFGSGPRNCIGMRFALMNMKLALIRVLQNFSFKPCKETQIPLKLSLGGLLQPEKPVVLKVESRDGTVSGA

[5] = Clearance in rat at 2 mg/kg, iv; format: ADME, organism-based; design: dose 2 mg/kg, route intravenous; conditions: in vivo
[6] = test system: Hepatitis C virus; assay: Ratio of EC50 for HCV 1a over EC50 for HCV 1b
[7] = test system: Hepatitis C virus; assay: Antiviral activity against HCV 1b infected in human 2209-23 cells assessed as inhibition of virus RNA replication by renilla luciferase reporter gene assay in presence of 5% fetal bovine serum; format: functional, organism-based, Hepacivirus hominis; conditions: genotype 1b
[8] = test system: Hepatitis C virus; assay: Antiviral activity against HCV 1b infected in human 2209-23 cells assessed as inhibition of virus RNA replication by renilla luciferase reporter gene assay in presence of 40% human serum; format: functional, organism-based, Hepacivirus hominis; conditions: genotype 1b
[9] = test system: Hepatitis C virus; assay: Selectivity ratio, EC50 for HCV 1b in presence of 40% human serum to EC50 for HCV 1b in presence of 5% fetal bovine serum; format: functional, Hepacivirus hominis, genotype 1b
[10] = Permeability by PAMPA; format: ADME; conditions: read-out: permeability
[11] = Metabolic stability in rat liver microsomes; format: ADME, Microsome; conditions: read-out: Stability
[12] = test system: Caco-2; assay: Efflux ratio of permeability from […] side in human Caco-2 cells after 21 days; format: ADME, cell-based; conditions: caco-2, 504 h
[13] = Tmax in po dosed rat; format: ADME, organism-based; conditions: in vivo
[14] = AUC in rat at 5 mg/kg; format: ADME, organism-based; design: dose 5 mg/kg; conditions: plasma
[15] = Oral bioavailability in rat; format: ADME, organism-based; conditions: in vivo

Genome polyprotein, sequence (Q9WMX2 2420-3010 limits assumed): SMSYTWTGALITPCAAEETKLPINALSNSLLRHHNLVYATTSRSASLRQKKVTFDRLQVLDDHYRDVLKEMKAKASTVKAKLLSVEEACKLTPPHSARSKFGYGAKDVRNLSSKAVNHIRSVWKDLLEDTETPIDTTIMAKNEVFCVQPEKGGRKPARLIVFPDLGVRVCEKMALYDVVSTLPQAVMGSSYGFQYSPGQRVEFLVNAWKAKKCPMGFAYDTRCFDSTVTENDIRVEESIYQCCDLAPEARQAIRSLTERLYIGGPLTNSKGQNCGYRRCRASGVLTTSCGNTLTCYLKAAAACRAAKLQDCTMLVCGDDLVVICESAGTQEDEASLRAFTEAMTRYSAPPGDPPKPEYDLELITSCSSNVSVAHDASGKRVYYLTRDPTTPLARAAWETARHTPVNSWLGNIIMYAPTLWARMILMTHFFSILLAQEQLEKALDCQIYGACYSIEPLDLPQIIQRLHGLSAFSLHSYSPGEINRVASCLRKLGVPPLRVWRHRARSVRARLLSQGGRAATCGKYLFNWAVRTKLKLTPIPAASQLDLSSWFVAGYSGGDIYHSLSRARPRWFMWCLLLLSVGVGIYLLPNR

Compound | IC50 [1] | CC50 [2] | EC50 [3] | inhibition (INH) [4] | clearance [5] | Ratio EC50 [6] | EC50 [7] | EC50 [8] | Ratio EC50 [9] | Papp [10] | microsomal CLint [11] | Ratio [12] | Tmax [13] | AUC [14] | bioavailability [15]
CC(C)(C)[C@H]1C(O)=C(C2=CS(=O)(=O)c3cc(C#N)ccc3N2)C(=O)N1Cc1ccc(F)cc1 | 1200 nM | > 50000 nM | 6850 nM | 10.9% |  |  |  |  |  |  |  |  |  |  | 
CC(C)(C)[C@H]1C(O)=C(C2=CS(=O)(=O)c3cc(NS(C)(=O)=O)cc(F)c3N2)C(=O)N1Cc1ccc(F)cc1 | 9 nM | > 50000 nM | 36 nM | 8.5% | 36 mL/min/kg | 4 |  |  |  |  |  |  |  |  | 
CC(C)(C)[C@H]1C(O)=C(C2=CS(=O)(=O)c3cc(F)ccc3N2)C(=O)N1Cc1ccc(F)cc1 | 338 nM | > 50000 nM | 1870 nM | 7.6% |  |  |  |  |  |  |  |  |  |  | 
COc1cc(CN2C(=O)C(C3=CS(=O)(=O)c4cc(NS(C)(=O)=O)ccc4N3)=C(O)[C@@H]2C(C)(C)C)ccc1F | 4 nM | > 50000 nM |  |  |  |  | 28 nM | 422 nM | 15.1 |  |  |  |  |  | 
CC(C)(C)[C@H]1C(O)=C(C2=CS(=O)(=O)c3cc([N+](=O)[O-])ccc3N2)C(=O)N1Cc1ccc(F)cc1 | 1800 nM | > 50000 nM | 16500 nM | 0.4% |  |  |  |  |  |  |  |  |  |  | 
CC(C)(C)[C@H]1C(O)=C(C2=CS(=O)(=O)c3cc(NS(C)(=O)=O)ccc3N2)C(=O)N1Cc1ccc(F)cc1F | 13 nM | > 50000 nM |  |  |  | 4 | 35 nM | 226 nM | 6.5 |  |  |  |  |  | 
CC(C)(C)[C@H]1C(O)=C(C2=C(Cl)S(=O)(=O)c3cc(NS(C)(=O)=O)ccc3N2)C(=O)N1Cc1ccc(F)cc1 | 2 nM | > 50000 nM | 4 nM | 31% |  |  |  |  |  |  |  |  |  |  | 
CCC(C)(C)[C@H]1C(O)=C(C2=CS(=O)(=O)c3cc(NS(C)(=O)=O)ccc3N2)C(=O)N1Cc1ccc(F)c(C)c1 |  |  | 24 nM |  |  |  |  |  |  |  |  |  |  |  | 
CC(C)CCN1C(=O)C(C2=CS(=O)(=O)c3cc(NS(C)(=O)=O)ccc3N2)=C(O)[C@@H]1C(C)(C)C | 5 nM | > 50000 nM |  |  |  |  | 30 nM | 660 nM | 22 |  |  |  |  |  | 
Cc1cc(CN2C(=O)C(C3=CS(=O)(=O)c4cc(NS(C)(=O)=O)ccc4N3)=C(O)[C@@H]2C(C)(C)C)ccc1F | 3 nM | > 50000 nM |  | 39% | 101 mL/min/kg | 4 | 12 nM | 122 nM | 10.2 | 1.62 ×10⁻⁶ cm/s | 327 µL/min/mg |  |  |  | 
CC(=O)C1=C(C2=C(O)[C@H](C(C)(C)C)N(Cc3ccc(F)cc3)C2=O)Nc2ccc(NS(C)(=O)=O)cc2S1(=O)=O | 4 nM | > 50000 nM | 20 nM | 15.1% |  |  |  |  |  |  |  |  |  |  | 
CC(C)(C)[C@H]1C(O)=C(C2=C(C(N)=O)S(=O)(=O)c3cc(NS(C)(=O)=O)ccc3N2)C(=O)N1Cc1ccc(F)cc1 | 11 nM | > 50000 nM | 16 nM | 17.8% | 5 mL/min/kg | 4 |  |  |  |  |  |  |  |  | 
CC(C)(C)CCN1C(=O)C(C2=CS(=O)(=O)c3cc(NS(C)(=O)=O)ccc3N2)=C(O)[C@@H]1C(C)(C)C | 8 nM | > 50000 nM |  | 23% | > 100 mL/min/kg |  | 16 nM | 65 nM | 4.1 | 1.8 ×10⁻⁶ cm/s | 79 µL/min/mg | 14 |  |  | 
CC(C)(C)[C@H]1C(O)=C(C2=CS(=O)(=O)c3cc(NS(C)(=O)=O)ccc3N2)C(=O)N1Cc1ccc(F)cn1 | 42 nM | > 50000 nM |  |  |  |  | 201 nM | 1720 nM | 8.5 |  |  |  |  |  | 
CC(C)(CO)[C@H]1C(O)=C(C2=CS(=O)(=O)c3cc(NS(C)(=O)=O)ccc3N2)C(=O)N1Cc1ccc(F)cc1 |  |  |  | 20.5% |  |  |  |  |  |  |  |  |  |  | 
CC1=C(C2=C(O)[C@H](C(C)(C)C)N(Cc3ccc(F)cc3)C2=O)Nc2ccc(NS(C)(=O)=O)cc2S1(=O)=O | 10 nM | > 50000 nM | 78 nM | 21.9% |  |  |  |  |  |  |  |  |  |  | 
CC(C)(C)[C@H]1C(O)=C(C2=CS(=O)(=O)c3cc(NS(C)(=O)=O)ccc3N2)C(=O)N1Cc1ccc(F)c(Cl)c1 | 5 nM | > 50000 nM |  | 41% | 86 mL/min/kg |  | 9 nM | 163 nM | 18.1 | 0.98 ×10⁻⁶ cm/s | 84 µL/min/mg |  |  |  | 
CC(C)(C)[C@H]1C(O)=C(C2=CS(=O)(=O)c3cc(NS(C)(=O)=O)ccc3N2)C(=O)N1Cc1ccccc1 | 8 nM | > 50000 nM |  | 19% | 144 mL/min/kg | 4 | 32 nM | 139 nM | 4.3 | 1.8 ×10⁻⁶ cm/s |  | 11 |  |  | 
CC(C)(C)[C@@H]1NC(=O)C(C2=CS(=O)(=O)c3cc(NS(C)(=O)=O)ccc3N2)=C1O |  |  |  | 5.7% |  |  |  |  |  |  |  |  |  |  | 
CC(C)(C)[C@H]1C(O)=C(C2=CS(=O)(=O)c3cc(NS(C)(=O)=O)ccc3N2)C(=O)N1Cc1ccc(F)cc1 | 7 nM | > 50000 nM | 5 nM | 41% | 101 mL/min/kg | 4 | 12 nM | 33 nM | 2.7 | 1.4 ×10⁻⁶ cm/s | 32 µL/min/mg | 25 | 1.3 h | 189 ng·h/mL | 22%
CC(C)(C)[C@H]1C(O)=C(C2=C(C#N)S(=O)(=O)c3cc(NS(C)(=O)=O)ccc3N2)C(=O)N1Cc1ccc(F)cc1 | 6 nM | > 50000 nM | 16 nM | 24.7% |  | 4 |  |  |  |  |  |  |  |  | 
